These results are taken from article PMC12682947, “Identification of New KCNT1‐Epilepsy Drugs by In Silico, Cell, and Drosophila Modeling” (Annals of Neurology, 2025).

Counter-ions that a name gives are not always drawn. Like-named read-outs stand apart in the source and are kept apart here.

The target of the assay is T1, WT/Y796H KCNT1 channels (Homo sapiens, UniProt Q5JUK3, Y796H).
T1 construct: T2A self-cleaving motif ([…]) following the first subunit (C); expressed in transfected cells; host or cells: CHO cells
T1 sequence (Q5JUK3 1-1230): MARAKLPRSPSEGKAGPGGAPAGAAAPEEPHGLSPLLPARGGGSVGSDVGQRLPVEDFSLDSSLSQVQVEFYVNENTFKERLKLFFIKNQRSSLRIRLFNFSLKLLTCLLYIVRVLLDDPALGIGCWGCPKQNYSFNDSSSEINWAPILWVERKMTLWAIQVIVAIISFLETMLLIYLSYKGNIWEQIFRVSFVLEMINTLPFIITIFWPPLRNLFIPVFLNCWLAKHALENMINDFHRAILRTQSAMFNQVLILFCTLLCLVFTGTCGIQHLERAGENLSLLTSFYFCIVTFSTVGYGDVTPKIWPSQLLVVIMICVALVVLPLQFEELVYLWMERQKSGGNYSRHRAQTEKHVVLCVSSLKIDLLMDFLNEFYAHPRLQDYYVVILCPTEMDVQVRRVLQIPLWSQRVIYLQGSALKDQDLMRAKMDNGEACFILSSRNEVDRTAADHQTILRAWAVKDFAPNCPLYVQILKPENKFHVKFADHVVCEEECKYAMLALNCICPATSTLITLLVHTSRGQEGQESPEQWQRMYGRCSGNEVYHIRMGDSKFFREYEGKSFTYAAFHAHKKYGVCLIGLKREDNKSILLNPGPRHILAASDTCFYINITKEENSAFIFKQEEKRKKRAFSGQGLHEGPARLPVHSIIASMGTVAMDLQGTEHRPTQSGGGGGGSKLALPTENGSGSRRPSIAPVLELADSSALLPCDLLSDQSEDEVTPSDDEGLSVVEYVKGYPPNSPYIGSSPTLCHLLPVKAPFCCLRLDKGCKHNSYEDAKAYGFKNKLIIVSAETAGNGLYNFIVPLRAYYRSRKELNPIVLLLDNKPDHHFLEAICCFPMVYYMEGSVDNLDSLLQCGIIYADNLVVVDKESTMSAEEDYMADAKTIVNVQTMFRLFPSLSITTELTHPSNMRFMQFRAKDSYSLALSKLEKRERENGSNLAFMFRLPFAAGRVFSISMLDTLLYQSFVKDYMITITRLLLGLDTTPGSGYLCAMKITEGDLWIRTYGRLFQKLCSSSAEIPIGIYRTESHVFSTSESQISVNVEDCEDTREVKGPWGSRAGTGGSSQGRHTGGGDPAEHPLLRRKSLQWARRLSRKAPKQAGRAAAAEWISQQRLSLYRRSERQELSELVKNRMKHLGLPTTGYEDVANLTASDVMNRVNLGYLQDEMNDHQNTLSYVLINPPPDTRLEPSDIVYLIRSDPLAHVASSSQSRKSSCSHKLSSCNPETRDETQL
T1 sequence (Q5JUK3 2-1230 Y796H limits assumed): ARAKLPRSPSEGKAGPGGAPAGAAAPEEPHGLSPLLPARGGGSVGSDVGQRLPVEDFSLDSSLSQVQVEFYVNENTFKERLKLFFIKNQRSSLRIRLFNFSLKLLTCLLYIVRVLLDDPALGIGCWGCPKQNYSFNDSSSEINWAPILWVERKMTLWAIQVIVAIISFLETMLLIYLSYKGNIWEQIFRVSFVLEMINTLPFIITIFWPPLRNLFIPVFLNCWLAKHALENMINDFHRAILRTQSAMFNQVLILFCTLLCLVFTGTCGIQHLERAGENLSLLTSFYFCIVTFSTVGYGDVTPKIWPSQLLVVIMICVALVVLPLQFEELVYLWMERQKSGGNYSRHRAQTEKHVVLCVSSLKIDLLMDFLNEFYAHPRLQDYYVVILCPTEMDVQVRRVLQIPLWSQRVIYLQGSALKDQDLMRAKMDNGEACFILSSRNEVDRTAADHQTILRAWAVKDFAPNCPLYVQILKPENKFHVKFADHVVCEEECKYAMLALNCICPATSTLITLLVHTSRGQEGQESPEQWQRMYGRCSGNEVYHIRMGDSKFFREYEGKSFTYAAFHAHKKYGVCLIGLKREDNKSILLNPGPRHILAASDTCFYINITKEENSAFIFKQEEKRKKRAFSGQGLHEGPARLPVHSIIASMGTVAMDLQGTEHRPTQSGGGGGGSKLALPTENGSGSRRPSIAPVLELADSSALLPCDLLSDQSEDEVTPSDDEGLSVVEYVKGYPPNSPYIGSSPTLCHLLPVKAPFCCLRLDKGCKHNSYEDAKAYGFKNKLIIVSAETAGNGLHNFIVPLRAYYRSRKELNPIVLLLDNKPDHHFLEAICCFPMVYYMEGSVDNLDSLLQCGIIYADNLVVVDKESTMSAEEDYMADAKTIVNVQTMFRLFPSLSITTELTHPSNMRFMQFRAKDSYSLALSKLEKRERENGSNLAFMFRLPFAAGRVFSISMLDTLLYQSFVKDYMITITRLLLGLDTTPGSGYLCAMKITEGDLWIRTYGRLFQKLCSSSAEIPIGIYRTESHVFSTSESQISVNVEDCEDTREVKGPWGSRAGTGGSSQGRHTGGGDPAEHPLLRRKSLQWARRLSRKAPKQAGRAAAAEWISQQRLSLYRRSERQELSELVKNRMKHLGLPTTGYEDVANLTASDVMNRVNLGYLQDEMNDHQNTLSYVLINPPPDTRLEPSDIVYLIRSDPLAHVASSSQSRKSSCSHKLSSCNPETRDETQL
Description: Whole-cell patch clamp of WT/Y796H KCNT1 channels expressed in CHO cells. In kind it is cell-based. The source says: To replicate the heterozygous nature of KCNT1‐associated disorders and obtain channels comprising wild‐type (WT) and mutated subunits, a concatemeric approach was taken. To generate human KCNT1 concatemers, plasmids termed donor and recipient were generated from the pcDNA6‐KCNT1 construct used previously[16] and empty pcDNA6 V5/His6 vector (Invitrogen) using standard polymerase chain reaction (PCR) and cloning techniques. The insert of the donor construct comprised the KCNT1 coding sequence that lacked a start codon and preceded by bases encoding a […] linker. […] The recipient construct was generated by deleting the stop codon and introducing a unique XhoI site. Sequences containing disease mutation Y796H were subcloned into these constructs from a plasmid used previously.[16] All sequences generated by PCR were confirmed by Sanger sequencing (Genewiz, Takeley, UK). Finally, the concatemeric construct was generated by subcloning the XhoI/AgeI fragment from the donor plasmid, containing the in‐frame linker and complete subunit sequence into the same sites in the recipient plasmid. Recombination‐deficient competent Escherichia coli (E. coli) cells and 32°C incubation temperature were used to reduce the frequency of deletions between identical sequences in the plasmid, which was confirmed by restriction analysis. For other experiments, constructs with WT, G288S, R398Q, or R928C mutant forms of KCNT1 cDNA, tagged with YFP‐6His in the pCMV‐entry vectors, were described previously.[10]
The CHO cells were cultured in Dulbecco's modified Eagle's Medium (ThermoFisher, UK) supplemented with 10% (v/v) fetal bovine serum, 50 U/ml penicillin and 0.05 mg/ml streptomycin, and incubated at 37°C in 5% CO2 atmosphere. For whole cell recording of WT/Y796H KCNT1, CHO cells were transiently co‐transfected with concatemeric WT/Y796H and EYFP, as described previously.[29] For electrophysiological experiments, cells were plated onto borosilicate glass cover slips and used 2 to 4 days later. Human embryonic kidney 293T cells (HEK293T) were cultured in the same manner, but with medium supplemented with 2 mM L‐glutamine, and 1% (v/v) nonessential amino acids. For excised inside‐out recording of homomeric WT or mutant YFP‐tagged KCNT1, HEK293T cells plated on glass cover slips were transfected using Attractene Transfection Reagent (Qiagen, Germany) according to the manufacturer's instructions and used 2 to 3 days later.
Whole cell recordings from transiently transfected CHO cells were conducted at room temperature and analyzed as described previously.[29] The pipette (intracellular) solution contained, in mM, 100 K‐gluconate, 30 KCl, 10 Na‐gluconate, 29 glucose, 5 EGTA, and 10 HEPES, adjusted to pH 7.3 with KOH and the bath (extracellular) solution contained, in mM, 140 NaCl, 1 CaCl2, 5 KCl, 29 glucose, 10 HEPES, and 1 MgCl2, adjusted to pH 7.4 with NaOH. For current‐voltage and conductance‐voltage analysis of the concatemeric constructs, cells were held at −80 mV and 400 ms pulses were applied to voltages between −100 and 80 mV. Conductance values (G) with each voltage pulse (V) were obtained by dividing the peak steady‐state current by the driving force (command voltage minus the measured reversal potential). Conductance‐voltage data were fit by a Boltzmann function, G = (G max – G min)/(1 + e^(V‐V½)/k)) + G min, where G max and G min are the maximum and minimum conductance values, V ½ the half‐maximal activation voltage, and slope k. The liquid junction potential was calculated and was used to correct voltage values after data collection. Inhibition by drugs, which were obtained from commercial sources, was determined from currents evoked by 500 ms voltage ramps from −100 to 0 mV at 0.2 hertz (Hz) as described previously.[16] Initially, the drugs (10 mM in DMSO) were diluted to 10 μM in a bath solution and applied via gravity perfusion for 2 minutes, followed by at least a 2‐minute wash with drug‐free solution prior to addition of the next drug. […]
For orientation: Patch clamp records ionic current or voltage across a cell membrane.

[1] abbreviates: whole-cell patch clamp, CHO cells.
The mark [2] stands for this setting: whole-cell patch clamp, CHO cells, concentration-inhibition analysis, read-out: mean ± SEM IC50.

`CC(C)N1CCN(c2ccc(OCC3COC(Cn4cncn4)(c4ccc(Cl)cc4Cl)O3)cc2)CC1` (stereo not shown) [terconazole]: under setting [1], the “inhibition of WT/Y796H KCNT1 channels at 10 μM” value (from here on “inhibition … at 10 μM”) is recorded as “did not exhibit inhibition”. As to `Cc1c(O)cccc1C(=O)N[C@@H](CSc1ccccc1)[C@H](O)CN1C[C@H]2CCCC[C@H]2C[C@H]1C(=O)NC(C)(C)C` [nelfinavir mesylate], the “inhibition … at 10 μM” value under setting [1] is listed as “inhibited”. Further, the IC50 under setting [2] came out at 2.86 ± 0.3 µM. As for `CC(C)(C)NC(=O)[C@@H]1CN(Cc2cccnc2)CCN1C[C@@H](O)C[C@@H](Cc1ccccc1)C(=O)N[C@H]1c2ccccc2C[C@H]1O` [indinavir], the “inhibition … at 10 μM” value under setting [1] is recorded as “did not exhibit inhibition”.

Turning to `CS(=O)(=O)c1cccc(C[C@H](NC(=O)c2c(Cl)cc3c(c2Cl)CCN(C(=O)c2ccc4ccoc4c2)C3)C(=O)O)c1` [lifitegrast], under setting [1], the “inhibition … at 10 μM” value is listed as “did not exhibit inhibition”.

`O=C(OCCN1CCN(c2cccc(C(F)(F)F)c2)CC1)c1ccccc1Nc1ccnc2cc(C(F)(F)F)ccc12` [antrafenine]: the concentration for half-maximal inhibition (IC50) stood at 1.3 ± 0.2 µM. Further, under setting [1], the “inhibition … at 10 μM” value is given as “inhibited”. On to `CNC(=O)c1cc(Oc2ccc(NC(=O)Nc3ccc(Cl)c(C(F)(F)F)c3)c(F)c2)ccn1` [regorafenib], for which, under setting [1], the “inhibition … at 10 μM” value is on record as “inhibited”. The half-maximal inhibitory concentration (IC50) under setting [2] is 10.3 ± 1.25 µM. As for `CCOc1nc2cccc(C(=O)OC(C)OC(=O)OC3CCCCC3)c2n1Cc1ccc(-c2ccccc2-c2nn[nH]n2)cc1` (stereo not shown) [Candesartan cilexetil, candesartan cilexetil], under setting [1], the “potency of concentration-dependent inhibition (in words)” value is listed as “much less potent”.

Consider `CC(C)c1c(C(=O)Nc2ccccc2)c(-c2ccccc2)c(-c2ccc(F)cc2)n1CC[C@@H](O)C[C@@H](O)CC(=O)O` [atorvastatin], for which the “inhibition … at 10 μM” value under setting [1] is recorded as “inhibited”. In addition, the 50% inhibitory concentration (IC50) under setting [2] was 7.54 ± 0.99 µM. As to `CC(C)[C@@H](C)/C=C/[C@@H](C)[C@H]1CC[C@H]2/C(=C/C=C3\C[C@@H](O)CC[C@@H]3C)CCC[C@]12C` [dihydrotachysterol], the “inhibition … at 10 μM” value under setting [1] was “did not exhibit inhibition”.

One may read the IC50 as the concentration that gives 50% inhibition.
